# Patent US20060252807A1, “Novel ortho-terphenyl inhibitors of p38 kinase and methods of treating inflammatory disorders” (Kalypsys, Inc., priority 2005, published 2006)
# Target: T1, active p38 alpha enzyme (Upstate Biotechnology) (Homo sapiens, UniProt Q16539)
# T1 construct: purchased Upstate Biotechnology
# Test: p38α biochemical assay (ATP turnover, luminescent detection, Cambrex PKlight)
# Conditions: p38α biochemical assay, Table 1 Biological Activity
# Method: The p38α biochemical assay employed is based on measurement of total ATP turnover following enzyme incubation with substrate in the presence of ATP with the use of a luminescent detection reagent (Cambrex PKlight). The assays were performed in 1536-well white opaque plates.
# The final volume was 7.5005 μL as prepared prepared from the addition of 5 ul of kinase reaction (p38 alpah+MapkapK2+ATP) with 0.0005 μL compound dissolved in DMSO, and 2.5 ul of the detection reagent. Assay buffer contains the following reagents to give final concentration in the assay: 200 mM Tris, 100 mM MgCl2, 1.5 mM EGTA, 4 mM CaCl2, 20 mM MOPS, 1 mM EDTA, 1% glycerol, 0.1% B-Mecaptoethanol, and 1 mg/ml BSA. Test compounds are pinned using proprietary pintool technology (Kalypsys, Inc) and delivered as […] amounts into the 5 ul mixture of active p38 alpha enzyme (Upstate Biotechnology) and MapkapK2 (Upstate Biotechnology) whole protein as a substrate for phosphorylation in the presence of 1.4 uM final concentration ATP. Reactions are incubated at 30C for 2 hours and detection reagent is added in 2.5 ul/well amounts. Assay is read using a Perkin Elmer Viewlux.
# T1 sequence (Q16539 whole entry): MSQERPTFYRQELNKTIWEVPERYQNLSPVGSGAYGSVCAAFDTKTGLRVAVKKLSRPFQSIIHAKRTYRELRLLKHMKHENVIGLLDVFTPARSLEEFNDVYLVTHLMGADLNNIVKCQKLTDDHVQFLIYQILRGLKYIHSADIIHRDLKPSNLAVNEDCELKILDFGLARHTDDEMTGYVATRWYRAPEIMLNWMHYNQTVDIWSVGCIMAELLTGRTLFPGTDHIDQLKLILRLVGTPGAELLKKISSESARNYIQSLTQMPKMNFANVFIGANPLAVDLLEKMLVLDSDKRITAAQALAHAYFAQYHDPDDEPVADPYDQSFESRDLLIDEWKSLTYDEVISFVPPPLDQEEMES
row,Structure (SMILES),IC50 [nM]
1,COc1ccc(OC)c(C(=O)NCc2onc(-c3ccc(F)cc3)c2-c2nc(C(=O)NC(C)C)cs2)c1 [Example 699],> 1000
2,CC(C)NC(=O)c1csc(-c2oc(CNC(=O)c3ccc4cccc(O)c4n3)nc2-c2ccc(F)cc2)n1 [Example 246],≤ 1000
3,CC(C)NC(=O)c1csc(-c2oc(CNC(=O)c3ccccc3Cc3ccccc3)nc2-c2ccc(F)cc2)n1 [Example 287],> 1000
4,CC(C)NC(=O)c1csc(-c2oc(CNC(=O)c3cncc(Br)c3)nc2-c2ccc(F)cc2)n1 [Example 277],≤ 1000
5,"Cc1onc(-c2ccc(Cl)cc2)c1-c1ccn(C(=O)NCc2ccco2)n1 [Example 11, 3-|3-(4-Chloro-phenyl)-5-methyl-isoxazol-4-yl|-pyrazole-1-carboxylic acid (furan-2-ylmethyl)-amide]",> 1000
6,CC(C)NC(=O)c1csc(-c2oc(CN3CCN(C(=O)c4ccc(Cl)cc4O)CC3)nc2-c2ccc(F)cc2)n1 [Example 432],≤ 1000
7,Cc1ccc(O)c(C(=O)NCc2nc(-c3ccc(F)cc3)c(-c3nc(C(=O)NC(C)C)cs3)o2)c1 [Example 145],> 1000
8,CC(C)NC(=O)c1csc(-c2c(-c3ccc(F)cc3)noc2CNC(=O)c2cc3ccccc3cc2O)n1 [Example 719],> 1000
9,CCCCOc1ccc(C(=O)NCc2nc(-c3ccc(F)cc3)c(-c3nc(C(=O)NC(C)C)cs3)o2)cc1 [Example 263],> 1000
10,Cc1c(C(=O)NCc2nc(-c3ccc(F)cc3)c(-c3nc(C(=O)NC(C)C)cs3)o2)oc2ccccc12 [Example 202],> 1000
11,CC(C)NC(=O)c1csc(-c2oc(CN3CCN(C(=O)c4ccccc4C(=O)c4ccc(F)cc4)CC3)nc2-c2ccc(F)cc2)n1 [Example 560],> 1000
12,CC(C)NC(=O)c1csc(-c2oc(CN3CCN(C(=O)c4cccc(C#N)c4)CC3)nc2-c2ccc(F)cc2)n1 [Example 367],> 1000
13,CC(C)NC(=O)c1csc(-c2oc(CNC(=O)C(O)CCl)nc2-c2ccc(F)cc2)n1 (centres unmarked) [Example 115],≤ 1000
14,CC(C)NC(=O)c1csc(-c2oc(CNC(=O)c3ccccn3)nc2-c2ccc(F)cc2)n1 [Example 114],> 1000
15,CC(C)NC(=O)c1csc(-c2oc(CNC(=O)Cc3c(F)cccc3F)nc2-c2ccc(F)cc2)n1 [Example 193],≤ 1000
16,Cc1cccc(C(=O)N2CCN(Cc3nc(-c4ccc(F)cc4)c(-c4nc(C(=O)NC(C)C)cs4)o3)CC2)c1C [Example 373],> 1000
17,CC(C)NC(=O)c1csc(-c2oc(CN3CCN(C(=O)c4c5ccccc5cc5ccccc45)CC3)nc2-c2ccc(F)cc2)n1 [Example 540],> 1000
18,CC(C)NC(=O)c1csc(-c2oc(CNC(=O)C3CC(O)CN3C(=O)OC(C)(C)C)nc2-c2ccc(F)cc2)n1 (centres unmarked) [Example 317],> 1000
19,CC(C)NC(=O)c1csc(-c2c(-c3ccc(F)cc3)noc2CNC(=O)c2cc([N+](=O)[O-])ccc2O)n1 [Example 709],> 1000
20,CC(=O)c1ccc(C(=O)NCc2onc(-c3ccc(F)cc3)c2-c2nc(C(=O)NC(C)C)cs2)cc1 [Example 642],> 1000
21,"C#CCNC(=O)c1csc(-c2c(-c3ccc(F)cc3)ncn2C2CCNCC2)n1 [Example 92, 2-|5-(4-Fluoro-phenyl)-3-piperidin-4-yl-3H-imidazol-4-yl|-thiazole-4-carboxylic acid prop-2-ynylamide]",≤ 1000
22,Cc1cccc(CCC(=O)NCc2onc(-c3ccc(F)cc3)c2-c2nc(C(=O)NC(C)C)cs2)c1 [Example 648],> 1000
23,CC(C)NC(=O)c1csc(-c2c(-c3ccc(F)cc3)noc2CNC(=O)c2cccc(C#N)c2)n1 [Example 605],> 1000

# Same assay, conditions: p38α kinase; Table 1 Biological Activity
row,Structure (SMILES),IC50 [nM]
1,CC(=O)Nc1cccc(C(=O)N2CCC(c3[nH]nc(-c4ccc(F)cc4)c3-c3nc(C(=O)NC(C)C)cs3)CC2)c1 [Example 925],≤ 1000
2,CC(C)NC(=O)c1csc(-c2c(-c3ccc(F)cc3)noc2CNc2cnc3ccccc3c2)n1 [Example 1669],> 1000
3,CCOc1ccccc1CNCc1nc(-c2ccc(F)cc2)c(-c2nc(C(=O)NC(C)C)cs2)o1 [Example 1147],> 1000
4,CC(C)NC(=O)c1csc(-c2c(-c3ccc(F)cc3)noc2CNCCC(c2ccccc2)c2ccccc2)n1 [Example 1506],> 1000
5,"CC(C)NC(=O)c1csc(-c2[nH][nH]c(=O)c2-c2ccc(F)cc2)n1 [Example 2180, 2-|4-(4-Fluoro-phenyl)-5-oxo-2,5-dihydro-1H-pyrazol-3-yl|-thiazole-4-carboxylic acid isopropylamide]",≤ 1000
6,Cc1nc(-c2ccc(F)cc2)c(-c2nc(C(=O)N3CCCC(C(N)=O)C3)cs2)s1 (centres unmarked) [Example 1872],> 1000
7,Cc1cccc(NCc2onc(-c3ccc(F)cc3)c2-c2nc(C(=O)NC(C)C)cs2)n1 [Example 1635],> 1000
8,Cc1ccc(C(=O)N2CCC(c3[nH]nc(-c4ccc(F)cc4)c3-c3nc(C(=O)NC(C)C)cs3)CC2)cc1Br [Example 1007],> 1000
9,Cc1nc(-c2ccc(F)cc2)c(-c2nc(C(=O)NCCCO)cs2)s1 [Example 1718],≤ 1000
10,CCNCc1onc(-c2ccc(F)cc2)c1-c1nc(C(=O)NC(C)C)cs1 [Example 1383],> 1000
11,CC(C)NC(=O)c1csc(-c2c(-c3ccc(F)cc3)n[nH]c2C2CCN(C(=O)c3ccc(OC(C)C)cc3)CC2)n1 [Example 933],> 1000
12,O=C(NCc1ccccc1)c1csc(-c2c(-c3ccc(F)cc3)n[nH]c2C2CCNCC2)n1 [Example 2062],> 1000
13,COc1ccc(NCc2nc(-c3ccc(F)cc3)c(-c3nc(C(=O)NC(C)C)cs3)o2)cc1OC [Example 1148],> 1000
14,Cc1cccc(NC(=O)c2csc(-c3sc(C)nc3-c3ccc(F)cc3)n2)n1 [Example 1960],> 1000
15,Cc1ccc(NCc2nc(-c3ccc(F)cc3)c(-c3nc(C(=O)NC(C)C)cs3)o2)c(C)c1 [Example 1322],> 1000
16,Cc1nc(-c2ccc(F)cc2)c(-c2nc(C(=O)NCCN(C(C)C)C(C)C)cs2)s1 [Example 1793],> 1000
17,Cc1nc(-c2ccc(F)cc2)c(-c2nc(C(=O)NCC(C)C)cs2)s1 [Example 1717],> 1000
18,Cc1nc(-c2ccc(F)cc2)c(-c2nc(C(=O)NCc3ccc(Cl)cc3)cs2)s1 [Example 1787],≤ 1000
19,CC(C)NC(=O)c1csc(-c2oc(CNCCC#N)nc2-c2ccc(F)cc2)n1 [Example 1058],> 1000
20,Cc1nc(-c2ccc(F)cc2)c(-c2nc(C(=O)Nc3ccc(C)c(F)c3)cs2)s1 [Example 1976],> 1000
21,CC(C)NC(=O)c1csc(-c2oc(CN[C@H](C)c3ccccc3)nc2-c2ccc(F)cc2)n1 [Example 1098],> 1000
22,CC(C)NC(=O)c1csc(-c2c(-c3ccc(F)cc3)noc2CNCCN2CCCCC2)n1 [Example 1439],> 1000
23,CC(C)NC(=O)c1csc(-c2oc(CNCCO)nc2-c2ccc(F)cc2)n1 [Example 1057],> 1000
24,CC(C)NC(=O)c1csc(-c2c(-c3ccc(F)cc3)n[nH]c2C2CCN(C(=O)c3c(F)cccc3Cl)CC2)n1 [Example 914],> 1000
25,COc1ccc(N2CCN(Cc3onc(-c4ccc(F)cc4)c3-c3nc(C(=O)NC(C)C)cs3)CC2)cc1OC [Example 1628],> 1000
26,CC(C)NC(=O)c1csc(-c2oc(CNc3ccc4ncsc4c3)nc2-c2ccc(F)cc2)n1 [Example 1350],> 1000
27,CC(C)NC(=O)c1csc(-c2c(-c3ccc(F)cc3)noc2CN2CCN(Cc3ccccc3)CC2)n1 [Example 1575],> 1000
